ChEMBL document CHEMBL1141115, “Synthesis of leukotriene B4 antagonists labeled with In-111 or Tc-99m to image infectious and inflammatory foci” (J Med Chem, 2005)

What was measured:
[1] = biological target: T1, Leukotriene B4 receptor 1 (Homo sapiens, UniProt Q15722); test: Inhibitory concentration against human leukotriene B4 receptor using competing agent [3H]-LTB4 as radioligand in pH 7.2 buffer, for 1 h at 37 degree C; (n=2)
[2] = biological target: T1, Leukotriene B4 receptor 1; test: Inhibitory concentration against human leukotriene B4 receptor using competing agent [111In]-(17)] as radioligand in pH 7.2 buffer, for 1 hr at 37 degree C; (n=2)
[3] = biological target: T1, Leukotriene B4 receptor 1; test: Inhibitory concentration against human leukotriene B4 receptor using competing agent [3H]-LTB4 as radioligand in pH 7.2 buffer upon incubation for 1 hr at 37 degree C; (n=4)
[4] = biological target: T1, Leukotriene B4 receptor 1; test: Inhibitory concentration against human leukotriene B4 receptor using competing agent [3H]-LTB4 as radioligand in pH 7.2 buffer, for 1 hr at 37 degree C

T1 sequence (Q15722 whole entry): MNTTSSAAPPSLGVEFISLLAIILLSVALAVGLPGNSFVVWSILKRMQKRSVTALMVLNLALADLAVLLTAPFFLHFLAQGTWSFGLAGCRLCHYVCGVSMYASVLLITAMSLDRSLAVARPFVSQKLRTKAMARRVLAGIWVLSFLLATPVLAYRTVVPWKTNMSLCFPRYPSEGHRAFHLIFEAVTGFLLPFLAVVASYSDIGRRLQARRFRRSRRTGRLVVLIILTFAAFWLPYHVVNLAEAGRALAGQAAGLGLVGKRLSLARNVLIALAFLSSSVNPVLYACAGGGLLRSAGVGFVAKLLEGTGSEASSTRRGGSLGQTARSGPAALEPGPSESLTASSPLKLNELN

Structure (SMILES)	IC50 [1] [nM]	IC50 [2] [nM]	also measured
CC(C)(CCCCOc1cc(-c2ccccc2)cc(-c2ccccc2)n1)c1nnnn1CCCCC(=O)NCCCOCCOCCOCCCNC(=O)c1ccc(N/N=C/c2ccccc2S(=O)(=O)O)nc1		44	IC50 [3]: 45 nM
CC(C)(CCCCOc1cc(-c2ccccc2)cc(-c2ccccc2)n1)c1nnn[nH]1			IC50 [4]: 20 nM
CC(C)(CCCCOc1cc(-c2ccccc2)cc(-c2ccccc2)n1)c1nnnn1CCCCC(=O)NCCCOCCOCCOCCCNC(=O)[C@H](CS(=O)(=O)O)NC(=O)[C@H](CS(=O)(=O)O)NC(=O)[C@H](CS(=O)(=O)O)NC(=O)[C@H](CS(=O)(=O)O)NC(=O)c1ccc(N/N=C/c2ccccc2)nc1		16	

More lines, main results first:

IC50 [1] [nM]	IC50 [2] [nM]	Structure (SMILES)	also measured
54	30	CC(C)(CCCCOc1cc(-c2ccccc2)cc(-c2ccccc2)n1)c1nnnn1CCCCC(=O)NCCCOCCOCCOCCCNC(=O)[C@H](CS(=O)(=O)O)NC(=O)[C@H](CS(=O)(=O)O)NC(=O)[C@H](CS(=O)(=O)O)NC(=O)[C@H](CS(=O)(=O)O)NC(=O)CC[C@H](NC(=O)CN(CCN(CCN(CC(=O)O)CC(=O)O)CC(=O)O)CC(=O)O)C(=O)N[C@@H](CS(=O)(=O)O)C(=O)N[C@@H](CS(=O)(=O)O)C(=O)N[C@@H](CS(=O)(=O)O)C(=O)N[C@@H](CS(=O)(=O)O)C(=O)NCCCOCCOCCOCCCNC(=O)CCCCn1nnnc1C(C)(C)CCCCOc1cc(-c2ccccc2)cc(-c2ccccc2)n1	
	230	CC(C)(CCCCOc1cc(-c2ccccc2)cc(-c2ccccc2)n1)c1nnnn1CCCCC(=O)NCCCOCCOCCOCCCNC(=O)[C@H](CS(=O)(=O)O)NC(=O)[C@H](CS(=O)(=O)O)NC(=O)[C@H](CS(=O)(=O)O)NC(=O)[C@H](CS(=O)(=O)O)NC(=O)CC[C@H](NC(=O)c1ccc(N/N=C/c2ccccc2)nc1)C(=O)N[C@@H](CS(=O)(=O)O)C(=O)N[C@@H](CS(=O)(=O)O)C(=O)N[C@@H](CS(=O)(=O)O)C(=O)N[C@@H](CS(=O)(=O)O)C(=O)NCCCOCCOCCOCCCNC(=O)CCCCn1nnnc1C(C)(C)CCCCOc1cc(-c2ccccc2)cc(-c2ccccc2)n1	
8		CC(C)(CCCCOc1cc(-c2ccccc2)cc(-c2ccccc2)n1)c1nnnn1CCCCC(=O)NCCCOCCOCCOCCCNC(=O)[C@H](CS(=O)(=O)O)NC(=O)[C@H](CS(=O)(=O)O)NC(=O)[C@H](CS(=O)(=O)O)NC(=O)[C@H](CS(=O)(=O)O)NC(=O)CC[C@H](N)C(=O)N[C@@H](CS(=O)(=O)O)C(=O)N[C@@H](CS(=O)(=O)O)C(=O)N[C@@H](CS(=O)(=O)O)C(=O)N[C@@H](CS(=O)(=O)O)C(=O)NCCCOCCOCCOCCCNC(=O)CCCCn1nnnc1C(C)(C)CCCCOc1cc(-c2ccccc2)cc(-c2ccccc2)n1	
